Reference: the METLIN SMRT retention time set (Domingo-Almenara et al. 2019)

Assay: gradient 5% acetonitrile 3 min, to 50% in 2 min, to 85% in 15 min, held 3 min, 100 µL/min
Conditions: column: Zorbax Extend-C18 2.1 x 50 mm; eluents: water / acetonitrile, 0.1% formic acid
In short: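 Retention times come from adduct peaks that were picked computationally and then checked by hand. The standards, pure and pooled in mixtures of ~100 molecules, were run on a Zorbax Extend-C18 column (2.1 × 50 mm, 1.8 μm) at 100 μL/min with water and acetonitrile, each with 0.1% formic acid. Detection was by quadrupole time-of-flight mass spectrometry in positive and negative ionization mode, with a dead volume of 40 μL and a dwell volume of 900 μL.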

| RP-LC retention time | SMILES |
| --- | --- |
| 623 s | CCCc1cc(N2CCN(C(=O)c3ccc(OC)nc3)CC2)nc2nnc(CC)n12 |
| 845 s | CCCn1cc(S(=O)(=O)Nc2cccc(C)c2)c2cccnc21 |
| 612 s | CCN1CCN(C(=O)C2CCCN(S(=O)(=O)c3cc(-c4noc(C)n4)cs3)C2)CC1 (stereo unspecified) |
| 714 s | COCc1c(C(=O)O)nnn1Cc1ccccc1C |
| 790 s | c1cc2nncn2nc1NC1CCCCC1 |
| 754 s | Cc1cccc(N2CCN(C(=O)COc3ccc(NC(=O)C4CC4)cn3)CC2)c1 |
| 769 s | Cc1csc(-c2cc(S(=O)(=O)NC(C)C)cn2CC(=O)N2CCCC2)n1 |
| 658 s | COCCCNC(=O)C1CCCN(c2ccc(=O)n(-c3ccc(OC)cc3)n2)C1 (stereo unspecified) |
| 745 s | O=C(Nc1nnc(Cc2ccccc2)s1)C1CC(=O)N(c2n[nH]c3cccc(F)c23)C1 (stereo unspecified) |
| 824 s | CCOc1cc(-c2ccc(C)cc2)nc2ccc(NC(=O)c3cccs3)cc12 |
| 858 s | CCOc1cc(C(=O)NC2CCN(c3cc(-c4ccc(F)cc4)[nH]n3)C2)cc(OCC)c1OCC (stereo unspecified) |
| 913 s | O=C(NCCc1csc(-c2ccc(F)cc2)n1)c1cccs1 |
| 727 s | CC(C)c1nnc(NC(=O)C2CCN(C(=O)c3ccc(F)cc3)CC2)s1 |
| 560 s | CCOC(=O)c1cnc2ccc(OCC)cc2c1NCCN(C)C |
| 1150 s | Cc1cc(OCC(=O)N2CCC(C)CC2)nc(-c2ccc(Cl)cc2)n1 |
| 562 s | OC[C@@H]1CN(Cc2ccncc2F)C[C@H]1c1nc(C2CC2)no1 |
| 801 s | CCC(=O)Nc1ccc(C2(C(=O)N3CCCCCC3)CCC2)cc1 |
| 818 s | CN1C(=O)c2cccnc2Sc2cc(C(=O)NCc3cccc(Cl)c3)ccc21 |
| 599 s | Cc1nn(-c2ccc(N3CCCC3)nn2)c(C)c1CCC(=O)N1CCCC1 |
| 629 s | COc1ccc(NC(=O)N2CCC(CN3CCCC(C)C3)CC2)cc1Cl (stereo unspecified) |
| 853 s | CC(C)NC(=O)N1CCC(CCOc2ccccc2F)C1 (stereo unspecified) |
| 729 s | Cc1cc(N2CCCC2)n2nc(-c3ccccc3C)nc2n1 |
| 680 s | CCCn1cc(-c2ccncc2)cc1C(=O)NCc1ccc(F)cc1 |

| RP-LC retention time | SMILES |
| --- | --- |
| 680 s | Cn1cc(C(CNC(=O)Nc2ccccc2)c2cccnc2)c2ccccc21 (stereo unspecified) |
| 580 s | COc1cccc(CNC(=O)Nc2ccc3nc(N4CCN(C)CC4)cc(C)c3c2)c1 |
| 1120 s | CCCN1C(=O)c2cc(S(=O)(=O)Nc3ccc(C)c(F)c3)ccc2Oc2cccnc21 |
| 881 s | Cc1ccc(Sc2nccnc2N2CCC(C(=O)N3CCOCC3)CC2)cc1 |
| 559 s | Cc1nnc2n1CCC(NC(=O)c1ccsc1)CC2 (stereo unspecified) |
| 986 s | O=C(NC1CCCCC1)c1ccc2ccnc(N3CCN(c4ccc(Cl)cc4)CC3)c2c1 |
| 906 s | COC(=O)c1ccc(-c2nc3cnccn3c2Nc2ccccc2C)cc1 |
| 695 s | CCN(CC)C(=O)CN1C(=O)COc2ccc(C(=O)N3CCCCC3)cc21 |
| 848 s | CCS(=O)(=O)N1CC(=O)N(c2ccc(Cl)cc2)C(C)(C(=O)NCc2ccccc2)C1 (stereo unspecified) |
| 730 s | C=CCn1c(C)c(CC(=O)NCCC)c(=O)n2nc(-c3ccccc3)nc12 |
| 568 s | CCN(CC)CCCC(C)Nc1nc(C)cc(Nc2ccc3nc(C)cc(N)c3c2)n1 (stereo unspecified) |
| 1240 s | CC(C)Cn1c(=O)c2ccccc2n(Cc2nc(-c3ccc(Cl)cc3)no2)c1=O |
| 636 s | CN1CCN(C(=O)C2CCN(S(=O)(=O)c3ccc(-c4noc(C5CC5)n4)cc3)CC2)CC1 |
| 559 s | Cc1ccnc(N2CCC(C(=O)NCCCN3CCCCC3)CC2)n1 |
| 698 s | CC(C)NC(=O)c1ccc2c(c1)N(C)C(=O)CS2 |
| 617 s | Cc1cc(C)c2c(N3CCSCC3)nc(C(=O)N3CCCC3)nc2n1 |
| 904 s | CCCNC(=O)N1CCCC1c1nc(-c2cccc(Cl)c2)no1 (stereo unspecified) |
| 904 s | CC(=O)N1CCc2sc(C(=O)N3CCN(c4cc(C)ccc4C)CC3)cc2C1 |
| 1160 s | COc1ccccc1-n1nnc(C(=O)OCc2nc(-c3cccc(Cl)c3)oc2C)c1C |
| 780 s | Cc1c(C)c2cc3c(=O)ccoc3c(C)c2oc1=O |
| 661 s | CC1CCCN(CCCNC(=O)c2cc(S(=O)(=O)N3CCCCC3)ccc2Cl)C1 (stereo unspecified) |
| 614 s | Cc1nc(-c2ccnc(N3CCOCC3)c2)no1 |
| 924 s | CCCN1C(=O)C2(c3cc(Br)ccc31)c1[nH]c3ccccc3c1CCN2C(C)=O (stereo unspecified) |

| RP-LC retention time | SMILES |
| --- | --- |
| 589 s | Clc1ccc(Cl)c(-c2ccc(CNCCCn3ccnc3)o2)c1 |
| 645 s | COc1ccc(Cl)cc1NC(=O)N1CCC(C(=O)Nc2cc(C)on2)CC1 |
| 548 s | CCNc1cc(N2CCC(CCC(=O)N3CCC(C)CC3)CC2)ncn1 |
| 960 s | Cn1cc2c(n1)c(=O)n(Cc1ccc(Cl)cc1)c1nn(Cc3ccccc3)c(=O)n21 |
| 861 s | Cc1oc(C2CCN(S(=O)(=O)Cc3ccccc3)CC2)nc1C(=O)N1CCCC1 |
| 641 s | CCn1nccc1C(=O)Nc1nnc(-c2ccsc2)o1 |
| 590 s | Cc1ccccc1OCC(=O)N1CC(CN(C)C)C2(CCOCC2)C1 (stereo unspecified) |
| 800 s | CSc1nc(=O)[nH]nc1Sc1ccccc1 |
| 897 s | COc1ccc(N2CCN(c3cc(SCC(=O)NCc4ccc(SC)cc4)ncn3)CC2)cc1 |
| 681 s | O=C(CN1C(=O)c2ccccc2C1=O)N1CCCN(c2nc3ncccc3o2)CC1 |
| 978 s | CCn1c(=O)sc2cc(S(=O)(=O)N3CCC(C(=O)Nc4cc(C)ccc4OC)CC3)ccc21 |
| 962 s | Cc1cccc(C(=O)Nc2nc(-c3ccc4c(c3)NC(=O)C(C)O4)cs2)c1 (stereo unspecified) |
| 599 s | NC(=O)C1CCCN(C(=O)c2ccc(F)cc2F)C1 (stereo unspecified) |
| 887 s | O=C(O)C(Cc1ccccc1)NS(=O)(=O)c1ccc(Cl)c(C(F)(F)F)c1 (stereo unspecified) |
| 860 s | COC(=O)C1=CN(c2ccccc2OC)c2cc(F)ccc2S1(=O)=O |
| 624 s | Cc1nnc(CNC(=O)OC(C)(C)C)n1-c1ccccc1 |
| 767 s | Cc1ccc(Cl)cc1NC(=O)CC1COc2ccccc2NC1=O (stereo unspecified) |
| 833 s | COc1ccc(-n2ccn3cc(-c4ccc5c(c4)OCO5)nc3c2=O)cc1Cl |
| 636 s | CCCc1cc(N2CCN(C(=O)c3cccn3C)CC2)nc2nnc(CC)n12 |
| 930 s | Cc1nc(C)c(C(=O)Nc2nc(-c3ccccc3)c(C)s2)s1 |
| 609 s | COc1ccc(S(=O)(=O)N2CCN(CCc3cn(C)c4ncccc34)CC2)cc1 |
| 690 s | N#CCN(c1ccc2c(c1)OCCO2)S(=O)(=O)c1ccc2nncn2c1 |
| 832 s | COC(=O)C(C)NC(=O)NCc1cccn1Cc1ccc(Cl)cc1 (stereo unspecified) |

| RP-LC retention time | SMILES |
| --- | --- |
| 962 s | COc1ccccc1-c1nc(C2CCN(C(=O)C3COc4ccccc4O3)CC2)no1 (stereo unspecified) |
| 969 s | Cc1ccc(S(=O)(=O)N2CCCC2C(=O)Nc2ccc(C)cc2C)cc1 (stereo unspecified) |
| 1060 s | CCC(C)n1c(=O)c2ccccc2n(Cc2nc(-c3ccc(OC)c(OC)c3)no2)c1=O (stereo unspecified) |
| 614 s | Cc1ccc(NC(=O)Nc2ccc3nc(N4CCN(C)CC4)cc(C)c3c2)cc1F |
| 862 s | CC(C)n1cnc(S(=O)(=O)N2CCC(C(=O)Nc3cccc(C(F)(F)F)c3)CC2)c1 |
| 731 s | O=C(c1c[nH]c2ccccc12)N1CCN(c2cc(-c3cccs3)[nH]n2)CC1 |
| 770 s | Cc1ccc(Cl)cc1NC(=O)Cn1nc2c3cc(Cl)ccc3ncn2c1=O |
| 679 s | CCN1CCCC1CNC(=O)C1CCN(S(=O)(=O)c2ccc(-c3noc(C4CC4)n3)cc2)CC1 (stereo unspecified) |
| 887 s | CCOc1ccc(N2C=C(C(=O)OC)S(=O)(=O)c3ccccc32)cc1 |
| 616 s | Cn1cc(CCN2CCN(S(=O)(=O)c3ccc(C#N)cc3)CC2)c2cccnc21 |
| 537 s | O=C(O)c1ccccc1-c1nc2ccccc2[nH]1 |
| 659 s | CC(C)NC(=O)Cn1cc(-c2ccccc2)c2ncnc(N3CCOCC3)c21 |
| 792 s | COc1cc(OC)cc(C(=O)N2C[C@@H]3C[C@H]2C[C@@H]3NS(=O)(=O)c2ccccc2)c1 |
| 654 s | CCCNC(=O)C1CCN(c2ccc(SCC(=O)Nc3ccc(OC)c(Cl)c3)nn2)CC1 |
| 683 s | Cc1cc(C(=O)N2CCOCC2)nn1CC(=O)Nc1nc2ccccc2s1 |
| 640 s | Cn1cc(CCN2CCC(C(=O)NCc3ccc(F)cc3Cl)CC2)c2cccnc21 |
| 830 s | Cc1ccc(Nc2c(-c3cccc(Br)c3)nc3ccc(C)cn23)cc1 |
| 597 s | O=C(NCC1CCCO1)c1nc(-c2ccnc(N3CCCC3)c2)no1 (stereo unspecified) |
| 1180 s | Cc1cc(C)c(NC(=O)Cn2nc(N3CCCC(C)C3)c3ccccc3c2=O)c(C)c1 (stereo unspecified) |
| 703 s | Cn1c(=O)c2ccn(CC(=O)NCc3cccc(Cl)c3)c2n(C)c1=O |
| 747 s | COC(=O)c1ncn2c1C(=O)N(Cc1ccc(C)cc1)C(C)(C(=O)NCc1ccccc1)C2 (stereo unspecified) |
| 949 s | CC1(C(=O)NCc2ccc(F)cc2)CCCN(C(=O)Nc2ccccc2C(F)(F)F)C1 (stereo unspecified) |
